Data as given in PubChem BioAssay AID1845212 (Molecular Pharmacology Branch, DTP, NCI, 2023).

Tested on: NCI-H719 tumor spheroids, viability
Assay: Anticancer human tumor NCI-H719 cell line growth inhibition;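 further: spheroids exposed to compounds for seven days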;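 on viability, T/C: percent viability relative to DMSO vehicle control as 100%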
Conditions: spheroids with HUVEC and MSC; for IC50: curve of first compound; for viability, T/C: stronger effect = lower value
Description: Multicellular complex tumor spheroid response to DNA repair inhibitors in combination with DNA-damaging drugs
This study explores the anticancer activities of DNA-damaging drugs and inhibitors of DNA damage repair, both as single agents and in combinations. Complex tumor spheroids comprised of malignant cells, endothelial cells and mesenchymal stem cells served as an in vitro model for human solid tumors. This model system incorporates physiologically relevant features and patient-derived or established malignant cell lines with clinically relevant genetic alterations from many tumor types. Twenty-six patient-derived or established malignant cell lines were evaluated representing sarcoma, melanoma, small cell lung cancer (SCLC), non-small cell lung cancer (NSCLC), as well as bladder, ovarian and pancreatic cancers. The concentration ranges selected for each drug and investigational agent were based upon clinically achievable concentrations if the clinical Cmax of the agent was known.
Compounds. The drugs and compounds olaparib (NSC753686), talazoparib (NSC767125), berzosertib (NSC777718), elimusertib (NSC800525), nedisertib (NSC802822), VX-984 (NSC792969), AZD-1390 (NSC803789), temozolomide (NSC362856), topotecan (NSC609699), trabectedin (NSC813783), staurosporine (NSC755774), and gemcitabine (NSC613327) were obtained from the National Cancer Institute (NCI) Developmental Therapeutics Program Chemical Repository. The FDA-approved anticancer drug set is available from the Developmental Therapeutics Program at https://dtp.cancer.gov/organization/dscb/obtaining/available_plates.htm. […] The stock solutions were prepared in dimethyl sulfoxide (DMSO, Sigma-Aldrich, St. Louis, MO, cat. D2650) at 400-fold the tested concentration and stored at -70 degrees C. Prior to their use, the stock solutions were diluted in fresh medium and the final DMSO concentration in the assay was 0.25% (v/v). All drugs and investigational agents were tested over a range starting from a high concentration at or near the clinical Cmax and decreasing in half-log increments. If the clinical Cmax for an agent had not been determined, the highest concentration tested was 10 microM.
Cell Lines. The patient-derived cancer cell (PDC) lines: 156681-154-R-J1-PDC, 283228-195-R-J1-PDC, 287954-098-R-J1-PDC, 292921-168-R-J2-PDC, 349418-098-R-PDC, 425362-245-T-J1-PDC, 556581-035-R-J1-PDC, and BL0293-F563-PDC were received from the NCI Patient-Derived Models Repository (PDMR, https://pdmr.cancer.gov). The established cell lines HS-SY-2 (RRID:CVCL_8719), MPNST, and SYO-1 (RRID:CVCL_7146) were obtained from the Sloan Kettering Institute. The alveolar soft parts sarcoma cell line ASPS-1 (RRID:CVCL_S738) was established at the NCI and grown from internal seed stocks. The following established cell lines were purchased from the American Type Culture Collection (ATCC, Manassas, VA): G-401 (ATCC, cat. CRL-1441, RRID:CVCL_0270), SW982 (ATCC, cat. HTB-93, RRID:CVCL_1734), VA-ES-BJ (ATCC, cat. CRL-2138, RRID:CVCL_1785), NCI-H719 (ATCC, cat. CRL-5837, RRID:CVCL_1582), NCI-H196 (ATCC, cat. CRL-5823, RRID:CVCL_1509), NCI-H841 (ATCC, cat. CRL-5845, RRID:CVCL_1595), NCI-H1618 (ATCC, cat. CRL-5879, RRID:CVCL_1480), NCI-H1876 (ATCC, cat. CRL-5902, RRID:CVCL_1503), DMS 114 (ATCC, cat. CRL-2066; RRID:CVCL_1174), NCI-H211 (ATCC, cat. CRL-5824; RRID:CVCL_1529), and SW 1271 (ATCC, cat. CRL-2177, RRID:CVCL_1716). The small cell lung cancer cell line COR-L88 was purchased from Sigma-Aldrich (cat. 92031917-1VL, RRID:CVCL_1141). The non-small cell lung cancer cell lines NCI-H226 (RRID:CVCL_1544) and NCI-H322M (RRID:CVCL_1557) were established at the NCI and grown from internal seed stocks. Pooled donor human umbilical vein endothelial cells (HUVEC, Lonza, cat. CC-2519) and human mesenchymal stem cells (hMSC, Lonza, cat. PT-2501) were purchased from Lonza (Walkersville, MD).
Cell Culture. All cells were maintained in an incubator at 37 degrees C and 5% CO2 with 95% humidity. […]

[1] = second compound 0.003 µM, first compound 0.0949 µM
[2] = second compound 0.003 µM, first compound 0.3 µM
[3] = second compound 0.003 µM, first compound 0.949 µM
[4] = second compound 0.003 µM, first compound 3 µM
[5] = second compound 0.00949 µM, first compound 0.0949 µM
[6] = second compound 0.00949 µM, first compound 0.3 µM
[7] = second compound 0.00949 µM, first compound 0.949 µM
[8] = second compound 0.00949 µM, first compound 3 µM
[9] = second compound 0.03 µM, first compound 0.0949 µM
[10] = second compound 0.03 µM, first compound 0.3 µM
[11] = second compound 0.03 µM, first compound 0.949 µM
[12] = second compound 0.03 µM, first compound 3 µM
[13] = second compound 0.0949 µM, first compound 0.0949 µM
[14] = second compound 0.0949 µM, first compound 0.3 µM
[15] = second compound 0.0949 µM, first compound 0.949 µM
[16] = second compound 0.0949 µM, first compound 3 µM
[17] = second compound 0.3 µM, first compound 0.0949 µM
[18] = second compound 0.3 µM, first compound 0.3 µM
[19] = second compound 0.3 µM, first compound 0.949 µM
[20] = second compound 0.3 µM, first compound 3 µM

Row | Structure (SMILES) | IC50 (second compound 0.003 µM) | IC50 (second compound 0.00949 µM) | IC50 (second compound 0.03 µM) | IC50 (second compound 0.0949 µM) | IC50 (second compound 0.3 µM) | viability, T/C [1] | viability, T/C [2] | viability, T/C [3] | viability, T/C [4] | viability, T/C [5] | viability, T/C [6] | viability, T/C [7] | viability, T/C [8] | viability, T/C [9] | viability, T/C [10] | viability, T/C [11] | viability, T/C [12] | viability, T/C [13] | viability, T/C [14] | viability, T/C [15] | further results
1 | Cn1ncnc1[C@H]1c2n[nH]c(=O)c3cc(F)cc(c23)N[C@@H]1c1ccc(F)cc1 + CC[C@@]1(O)C(=O)OCc2c1cc1n(c2=O)Cc2cc3c(CN(C)C)c(O)ccc3nc2-1 | < 9.49 nM | < 9.49 nM | < 9.49 nM | < 9.49 nM | < 9.49 nM | 5.99% | 5.19% | 4.99% | 5.85% | 5.47% | 5.57% | 5.5% | 6.37% | 4.9% | 5.13% | 5.61% | 6.6% | 6.09% | 5.95% | 5.66% | viability, T/C (second compound 0.003 µM, first compound 0.00949 µM): 5.32%; viability, T/C (second compound 0.003 µM, first compound 0.03 µM): 5.79%; viability, T/C (second compound 0.00949 µM, first compound 0.00949 µM): 5.81%; viability, T/C (second compound 0.00949 µM, first compound 0.03 µM): 5.54%; viability, T/C (second compound 0.03 µM, first compound 0.00949 µM): 5.15%; viability, T/C (second compound 0.03 µM, first compound 0.03 µM): 5.23%; viability, T/C (second compound 0.0949 µM, first compound 0.00949 µM): 5.2%; viability, T/C (second compound 0.0949 µM, first compound 0.03 µM): 5.29%; viability, T/C [16]: 7.03%; viability, T/C (second compound 0.3 µM, first compound 0.00949 µM): 5.56%; viability, T/C (second compound 0.3 µM, first compound 0.03 µM): 5.67%; viability, T/C [17]: 5.84%; viability, T/C [18]: 5.89%; viability, T/C [19]: 6.04%; viability, T/C [20]: 5.47%
2 | O=C(c1cc(Cc2n[nH]c(=O)c3ccccc23)ccc1F)N1CCN(C(=O)C2CC2)CC1 + CC[C@@]1(O)C(=O)OCc2c1cc1n(c2=O)Cc2cc3c(CN(C)C)c(O)ccc3nc2-1 | < 94.9 nM | < 94.9 nM | < 94.9 nM | < 94.9 nM | < 94.9 nM | 8.96% | 7.42% | 6.71% | 6.81% | 6.26% | 5.9% | 6.11% | 5.87% | 5.59% | 5.66% | 6.11% | 5.5% | 5.78% | 5.76% | 5.69% | viability, T/C (second compound 0.003 µM, first compound 9.49 µM): 5.81%; viability, T/C (second compound 0.003 µM, first compound 30 µM): 4.97%; viability, T/C (second compound 0.00949 µM, first compound 9.49 µM): 5.83%; viability, T/C (second compound 0.00949 µM, first compound 30 µM): 5.35%; viability, T/C (second compound 0.03 µM, first compound 9.49 µM): 5.9%; viability, T/C (second compound 0.03 µM, first compound 30 µM): 5.66%; viability, T/C [16]: 5.69%; viability, T/C (second compound 0.0949 µM, first compound 9.49 µM): 5.97%; viability, T/C (second compound 0.0949 µM, first compound 30 µM): 5.61%; viability, T/C [17]: 5.43%; viability, T/C [18]: 5.79%; viability, T/C [19]: 6.36%; viability, T/C [20]: 5.43%; viability, T/C (second compound 0.3 µM, first compound 9.49 µM): 5.25%; viability, T/C (second compound 0.3 µM, first compound 30 µM): 4.62%
